Assay results from US20250161196A1, “Antioxidant Compositions” (THE BOOTS COMPANY PLC, priority 2022, published 2025).

Assay: Total Antioxidant Capacity (TAC) assay, Cell Biolabs kit, copper ion reduction, absorbance at 490 nm
Assay type: biochemical
Conditions: for Total Antioxidant Capacity (TAC): absorbance 490 nm, triplicate; for TAC of the individual antioxidant agent: Table 1 / FIG. 1, single agent alone
Protocol: Total antioxidant capacity (TAC) was determined using a kit (Cell Biolabs, Inc) as follows; the test samples were diluted in water and a buffer to reach a final antioxidant agent to buffer ratio ranging from 1:1 to 1:1,000,000. 20 ul of test sample or control (ascorbic acid or green tea) were added to the wells of 96 well plate, followed by 180 μL of 1× Reaction Buffer (provided with the kit). The absorbance of the reaction mix in each well was measured at 490 nm to get an initial reading. 50 μL of the 1× Copper Ion Reagent (provided with the kit) were added to each well to initiate the reaction. The reaction was allowed to carry on for 5 minutes on an orbital shaker and 50 μL of 1× Stop Solution (provided with the kit) added to each well to terminate the reaction. The colour change was assessed using a plate reader at 490 nm.
The stronger the colour change at the end of the reaction, the higher the spectrophotometric value, and the higher the antioxidant capacity of the antioxidant agents.
21 antioxidant compounds were tested in triplicate at antioxidant: buffer ratios ranging from 1:1 to 1:1,000,000. […]

[1] = Antioxidant:Buffer 1:1 (concentration 1)
[2] = Antioxidant:Buffer 1:10 (concentration 0.1)
[3] = Antioxidant:Buffer 1:100 (concentration 0.01)

| Compound | Total Antioxidant Capacity (TAC) [1] | Total Antioxidant Capacity (TAC) [2] | Total Antioxidant Capacity (TAC) [3] | TAC of the individual antioxidant agent |
| --- | --- | --- | --- | --- |
| COc1cc(/C=C/C(=O)O)ccc1O [Ferulic acid] | 1.911 | 1.808 | 1.991 | 1.583 |
| COc1cc2c(cc1O)CCC(C)(C)O2 [Dimethylmethylmethoxy chromanol, Dimethylmethoxy chromanol] | 1.839 | 1.807 | 1.824 | 1.671 |
| O=C1O[C@H]([C@@H](O)CO)C(O)=C1O [Ascorbic Acid (Control), Ascorbic Acid, reference compound] | 2.6 | 1.6 | 0.7 |  |
